Measured values reported in US11252962B2, “Cyclopropylpyridyl group-containing benzimidazole compound or salt thereof, agricultural and horticultural insecticide comprising the compound or the salt, and method for using the insecticide” (NIHON NOHYAKU CO., LTD., priority 2017, dated 2022).

Key:
Myzus persicae = experiment: Test for control efficacy on Myzus persicae; format: in vivo; conditions: 144 h, foliar application to potted Chinese cabbage, 6 days after application, read-out: control efficacy (control rate), activity level
Source text: Test for Control Efficacy on Myzus persicae Chinese cabbage plants were planted in plastic pots (diameter: 8 cm, height: 8 cm), Green peach aphids (M. persicae) were propagated on the plants, and the number of surviving Green peach aphids in each pot was counted. […] The agrochemical dispersions were applied to the foliage of the potted Chinese cabbage plants. After the plants were air-dried, the pots were kept in a greenhouse. At 6 days after the foliar application, the number of surviving Green peach aphids on the Chinese cabbage plant in each pot was counted, the control rate was calculated according to the formula shown below, and the control efficacy was evaluated according to the criteria shown below. Control rate=100−{(T×Ca)/(Ta×C)}×100 [Math. 1] Ta: the number of survivors before the foliar application in a treatment plot T: the number of survivors after the foliar application in a treatment plot Ca: the number of survivors before the foliar application in a non-treatment plot C: the number of survivors after the foliar application in a non-treatment plot Criteria A: the control rate is 100%. […] C: the control rate is 80 to 89%.

Plutella xylostella = experiment: Insecticidal test on Plutella xylostella; format: in vivo; conditions: 144 h, Chinese cabbage seedlings with laid eggs dipped about 30 seconds, 6 days after dip treatment, 25° C., read-out: insecticidal efficacy (corrected mortality rate), activity level
Experimental: Insecticidal Test on Plutella xylostella
Adults of P. xylostella were released onto Chinese cabbage seedlings and allowed to lay eggs thereon. […] After air-dried, the seedlings were kept in a thermostatic chamber at 25° C. […] This test was conducted in triplicate using 10 adults of P. xylostella per plot. Corrected mortality rate (%)=100×(Number of hatched larvae in a non-treatment plot−Number of hatched larvae in a treatment plot)/Number of hatched larvae in a non-treatment plot [Math. 3]

Laodelphax striatellus = experiment: Insecticidal test on Laodelphax striatellus; format: in vivo; conditions: 192 h, rice seedlings dipped 30 seconds, 3rd-instar larvae, 8 days after inoculation, read-out: insecticidal efficacy (corrected mortality rate), activity level
Experimental: Insecticidal Test on Laodelphax striatellus
Rice plant seedlings (variety: Nihonbare) were dipped in the agrochemical dispersions for 30 seconds. After air-dried, each seedling was put into a separate glass test tube and inoculated with ten 3rd-instar larvae of L. striatellus, and then the glass test tubes were capped with cotton plugs. At 8 days after the inoculation, the numbers of surviving larvae and dead larvae were counted, the corrected mortality rate was calculated according to the formula shown below, and the insecticidal efficacy was evaluated according to the criteria shown below. Corrected mortality rate (%)=100×(Survival rate in a non-treatment plot−Survival rate in a treatment plot)/Survival rate in a non-treatment plot [Math. 2] Corrected Mortality Rate A: the corrected mortality rate is 100%.

Rhipicephalus sanguineus = experiment: Parasiticidal test on Rhipicephalus sanguineus; format: in vivo; conditions: treated filter paper, nymphs, 27° C., 48 hours after treatment, read-out: corrected mortality rate
Experimental: Parasiticidal Test on Rhipicephalus sanguineus
The diluted formulations were applied dropwise onto filter paper pieces placed in separate vials. The filter paper pieces were dried. Ten nymphs of R. sanguineus were placed into each vial and maintained at 27° C. with 80% humidity under a 12L12D light-dark cycle (L: light time, D: dark time). At 48 hours after agrochemical treatment, the numbers of surviving and dead nymphs were counted, and the corrected mortality rate was calculated according to the formula of Math. 4.

Haemonchus contortus = experiment: Parasiticidal test on Haemonchus contortus (larval motility); conditions: 1st-instar larvae, 96-well plates, 27° C., 96 hours, read-out: percent inhibition in motility
Source text: Parasiticidal Test on Haemonchus contortus
Eggs of H. contortus were collected from feces of a goat and hatched in water. […] Percent inhibition in motility (%)=100×(Average motility in negative control wells−Average motility in treated wells)/Average motility in negative control wells [Math. 5]

Ctenocephalides felis = experiment: Parasiticidal test on Ctenocephalides felis; format: in vivo; conditions: 50 ppm in bovine blood, adults, artificial feeding system 35° C., 24 hours after treatment, read-out: corrected mortality rate
Experimental: Parasiticidal Test on Ctenocephalides felis
Newly-emerged adults of C. felis were placed into test cages (10 adults per test cage), and the test cages were maintained at 35° C. in an artificial feeding system. At 24 hours after agrochemical treatment, the numbers of surviving and dead adults were counted, and the corrected mortality rate was calculated according to the formula shown below. Corrected mortality rate (%)=100×(Survival rate in a negative control group−Survival rate in a treatment group)/Survival rate in a negative control group [Math.

SMILES | pest or weed control at 500 ppm (Myzus persicae) [%] | mortality at 500 ppm (Plutella xylostella) [%] | mortality at 500 ppm (Laodelphax striatellus) [%] | mortality at 100 ppm (Rhipicephalus sanguineus) [%] | inhibition at 100 ppm (Haemonchus contortus) [%] | mortality at 50 ppm (Ctenocephalides felis) [%]
CCSc1cc(C2CC2)cnc1-c1nc2cc(SC(F)(F)F)ccc2n1C [Compound 1-1, 2-(3-ethylthio-5-cyclopropylpyridin-2-yl)-1-methyl-5-(trifluoromethylthio)benzimidazole] | 100 | 100 | 100 | – | – | –
CC[S+]([O-])c1cc(C2CC2)cnc1-c1nc2cc(SC(F)(F)F)ccc2n1C (stereo not drawn) [Compound 1-2, 2-(3-ethylsulfinyl-5-cyclopropylpyridin-2-yl)-1-methyl-5-(trifluoromethylthio)benzimidazole] | 100 | 100 | 100 | – | – | –
CCS(=O)(=O)c1cc(C2CC2)cnc1-c1nc2cc(SC(F)(F)F)ccc2n1C [Compound 1-3, 2-(3-ethylsulfonyl-5-cyclopropylpyridin-2-yl)-1-methyl-5-(trifluoromethylthio)benzimidazole] | 100 | 100 | 100 | ≥ 90 | ≥ 50 | ≥ 90
CCS(=O)(=O)c1cc(C2CC2)cnc1-c1nc2cc([S+]([O-])C(F)(F)F)ccc2n1C (stereo not drawn) [Compound 1-4, 2-(3-ethylsulfonyl-5-cyclopropylpyridin-2-yl)-1-methyl-5-(trifluoromethylsulfinyl)benzimidazole] | 100 | 100 | 100 | ≥ 90 | ≥ 50 | ≥ 90
CCS(=O)(=O)c1cc(C2CC2)cnc1-c1nc2cc(S(=O)(=O)C(F)(F)F)ccc2n1C [Compound 1-5, 2-(3-ethylsulfonyl-5-cyclopropylpyridin-2-yl)-1-methyl-5-(trifluoromethylsulfonyl)benzimidazole] | 100 | 100 | 100 | – | – | –
CCSc1cc(C2(C#N)CC2)cnc1-c1nc2cc(SC(F)(F)F)ccc2n1C [Compound 1-6] | 100 | 100 | 100 | – | – | –
CCS(=O)(=O)c1cc(C2CC2)cnc1-c1nc2cc(OC(F)(F)F)ccc2n1C [Compound 1-27, 2-(5-cyclopropyl-3-ethylsulfonyl-pyridin-2-yl)-1-methyl-5-trifluoromethoxybenzimidazole] | 100 | 100 | 100 | – | – | –
CCSc1cc(C2(C#N)CC2)cnc1-c1nc2cc(OC(F)(F)F)ccc2n1C [Compound 1-83, 2-(5-(1-cyanocyclopropyl)-3-ethylthiopyridin-2-yl)-1-methyl-5-trifluoromethoxybenzimidazole] | 100 | 100 | 100 | – | – | –
CCS(=O)(=O)c1cc(C2(C#N)CC2)cnc1-c1nc2cc(OC(F)(F)F)ccc2n1C [Compound 1-85, 2-(5-(1-cyanocyclopropyl)-3-ethylsulfonyl-pyridin-2-yl)-1-m ethyl-5-trifluoromethoxybenzimidazole] | 100 | 100 | 100 | – | – | –
